Laboratory results as given in PubChem BioAssay AID248 (DTP/NCI, 2004).
Several values for one entry are separate records, joined by “and”; a condition that tells them apart may be missing. Identical values can stand only once. Toxic doses and inconclusive results are not listed. Cut-off read from the data, not from the text of the source: active = T/C of 150% or more; inactive = T/C below 125%.

System: L1210 leukemia ip in BDF1 mice, survival T/C
Assay: NCI In Vivo Anticancer Drug Screen. Data for tumor model L1210 Leukemia (intraperitoneal) in B6D2F1 (BDF1) mice
Details: endpoint: mean survival time, higher = longer survival
Outline: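 Survival endpoint. Drug-treated group vs vehicle group, expressed as T divided by C. Tumor passaged by transplantation.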

[1] = dose: 100.0 mg/kg/injection, schedule: Q04DX002 (ip), vehicle: Klucel (hydroxypropylcellulose) (HPC)
[2] = dose: 200.0 mg/kg/injection, schedule: Q04DX002 (ip), vehicle: Klucel (hydroxypropylcellulose) (HPC)
[3] = dose: 100.0 mg/kg/injection, schedule: Q04DX003 (ip), vehicle: Klucel (hydroxypropylcellulose) (HPC)
[4] = dose: 200.0 mg/kg/injection, schedule: Q04DX003 (ip), vehicle: Klucel (hydroxypropylcellulose) (HPC)
[5] = dose: 100.0 mg/kg/injection, schedule: Q01DX009 (ip), vehicle: saline
[6] = dose: 200.0 mg/kg/injection, schedule: Q01DX009 (ip), vehicle: saline
[7] = dose: 100.0 mg/kg/injection, schedule: Q01DX009 (ip), vehicle: Klucel (hydroxypropylcellulose) (HPC)
[8] = dose: 200.0 mg/kg/injection, schedule: Q01DX009 (ip), vehicle: Klucel (hydroxypropylcellulose) (HPC)
[9] = dose: 400.0 mg/kg/injection, schedule: Q01DX009 (ip), vehicle: Klucel (hydroxypropylcellulose) (HPC)
[10] = dose: 400.0 mg/kg/injection, schedule: Q04DX003 (ip), vehicle: Klucel (hydroxypropylcellulose) (HPC)
[11] = dose: 100.0 mg/kg/injection, schedule: Q01DX009 (ip), vehicle: saline with Tween-80
[12] = dose: 200.0 mg/kg/injection, schedule: Q01DX009 (ip), vehicle: saline with Tween-80
[13] = dose: 400.0 mg/kg/injection, schedule: Q01DX009 (ip), vehicle: saline with Tween-80
[14] = dose: 100.0 mg/kg/injection, schedule: Q04DX003 (ip), vehicle: saline with Tween-80
[15] = dose: 200.0 mg/kg/injection, schedule: Q04DX003 (ip), vehicle: saline with Tween-80
[16] = dose: 400.0 mg/kg/injection, schedule: Q04DX003 (ip), vehicle: saline with Tween-80
[17] = dose: 50.0 mg/kg/injection, schedule: Q01DX001 (ip), vehicle: saline
[18] = dose: 50.0 mg/kg/injection, schedule: Q01DX009 (ip), vehicle: saline
[19] = dose: 100.0 mg/kg/injection, schedule: Q01DX001 (ip), vehicle: saline
[20] = dose: 200.0 mg/kg/injection, schedule: Q01DX001 (ip), vehicle: saline

Measured: T/C

O=C(Nc1ccc(Br)cc1)C(Br)C(Br)c1ccccc1 (configuration not stated)
inactive: [1] 98 % of control | [2] 88 % of control | dose: 400.0 mg/kg/injection, schedule: Q04DX002 (ip), vehicle: Klucel (hydroxypropylcellulose) (HPC) 98 % of control

O=C(O)c1cccc2c1-c1ccc(Cl)cc1C2
inactive: [3] 104 % of control | [4] 102 % of control

C#CCOCCCC(=O)O
inactive: [5] 91 % of control | [6] 89 % of control

Cc1ccc(S(=O)(=O)NC(=O)NCCS)cc1
inactive: dose: 100.0 mg/kg/injection, schedule: Q04DX003 (ip), vehicle: saline 100 % of control | dose: 200.0 mg/kg/injection, schedule: Q04DX003 (ip), vehicle: saline 102 % of control | dose: 400.0 mg/kg/injection, schedule: Q04DX003 (ip), vehicle: saline 96 % of control

Nc1ccc(OCCNS(=O)(=O)c2ccc(S(=O)(=O)F)cc2)c(Cl)c1
inactive: dose: 25.0 mg/kg/injection, schedule: Q04DX003 (ip), vehicle: Klucel (hydroxypropylcellulose) (HPC) 97 % of control | dose: 50.0 mg/kg/injection, schedule: Q01DX001 (ip), vehicle: saline with Tween-80 91 % of control | dose: 50.0 mg/kg/injection, schedule: Q04DX003 (ip), vehicle: Klucel (hydroxypropylcellulose) (HPC) 97 % of control | dose: 100.0 mg/kg/injection, schedule: Q01DX001 (ip), vehicle: saline with Tween-80 92 % of control | [3] 99 % of control and 105 % of control | dose: 200.0 mg/kg/injection, schedule: Q01DX001 (ip), vehicle: saline with Tween-80 100 % of control

COc1ccc2c(c1)CC(OC)c1cc3c(nc1-2)-c1ccccc1CC3 (configuration not stated)
inactive: [7] 96 % of control | [3] 102 % of control | [8] 103 % of control | [4] 100 % of control | [9] 100 % of control | [10] 98 % of control

OCC1(c2ccccc2)CCCC1(CO)c1ccccc1 (configuration not stated)
inactive: dose: 15.0 mg/kg/injection, schedule: Q01DX001 (ip), vehicle: carboxymethylcellulose (CMC) 95 % of control | dose: 30.0 mg/kg/injection, schedule: Q01DX001 (ip), vehicle: carboxymethylcellulose (CMC) 93 % of control | dose: 60.0 mg/kg/injection, schedule: Q01DX001 (ip), vehicle: carboxymethylcellulose (CMC) 91 % of control

Cc1ccnc([N+](=O)[O-])c1
inactive: [11] 103 % of control | [12] 92 % of control | [13] 106 % of control

CCCCNc1nc(N)nc(N)c1[N+](=O)[O-]
inactive: [3] 103 % of control | [4] 98 % of control | [10] 101 % of control

CC(=O)Cc1cc(C)nc(NC#N)n1
inactive: [1] 102 % of control | [2] 98 % of control

COc1cc(N(CCCl)CCCl)ccc1CN1CCCN(Cc2ccc(N(CCCl)CCCl)cc2OC)C1c1ccccc1O
inactive: dose: 50.0 mg/kg/injection, schedule: Q01DX009 (ip), vehicle: Klucel (hydroxypropylcellulose) (HPC) 96 % of control | [7] 109 % of control | [3] 110 % of control | [8] 90 % of control | [4] 103 % of control

O=C(O)C1Cc2c([nH]c3ccccc23)C(c2ccccc2)N1 (configuration not stated)
inactive: [11] 96 % of control | [14] 104 % of control | [12] 94 % of control | [15] 102 % of control | [13] 97 % of control | [16] 96 % of control

CC1(C)OC2OC(/C=C\C=O)C3OC(C)(C)OC3C2O1 (configuration not stated)
inactive: dose: 100.0 mg/kg/injection, schedule: Q04DX003 (ip), vehicle: acetone 100 % of control | dose: 200.0 mg/kg/injection, schedule: Q04DX003 (ip), vehicle: acetone 104 % of control

CC(C)NC(C)Cc1ccccc1 (configuration not stated)
inactive: dose: 25.0 mg/kg/injection, schedule: Q01DX001 (ip), vehicle: saline 93 % of control | [17] 91 % of control

O=C(O)C1=NN(c2ccc([N+](=O)[O-])cc2)C(=O)C1
inactive: dose: 100.0 mg/kg/injection, schedule: Q04DX003 (ip), vehicle: other 106 % of control | dose: 200.0 mg/kg/injection, schedule: Q04DX003 (ip), vehicle: other 105 % of control | dose: 400.0 mg/kg/injection, schedule: Q04DX003 (ip), vehicle: other 106 % of control

c1ccc(CCN2CCCCC2)cc1
inactive: dose: 10.0 mg/kg/injection, schedule: Q01DX001 (ip), vehicle: saline 95 % of control | dose: 20.0 mg/kg/injection, schedule: Q01DX001 (ip), vehicle: saline 116 % of control | dose: 40.0 mg/kg/injection, schedule: Q01DX001 (ip), vehicle: saline 96 % of control

CCCCCCCCCCCCCC(=O)[O][Hg][c]1ccccc1
inactive: dose: 75.0 mg/kg/injection, schedule: Q01DX001 (ip), vehicle: steriod suspending solution 96 % of control

Cc1o[nH]c(=O)c1C
inactive: [14] 103 % of control | [15] 94 % of control | [16] 103 % of control

NC(=O)CCC(N)C(=O)O (configuration not stated)
inactive: dose: 6.25 mg/kg/injection, schedule: Q01DX009 (ip), vehicle: saline 108 % of control | [11] 97 % of control | [14] 94 % of control | [12] 90 % of control | [15] 93 % of control | [13] 93 % of control | [16] 96 % of control

O=[N+]([O-])c1ccc(C#CS(=O)(=O)c2ccccc2)cc1
inactive: [18] 104 % of control | [5] 96 % of control | [6] 96 % of control

CCCOc1cccc(N)c1
inactive: [17] 96 % of control | [19] 91 % of control | [20] 93 % of control

OC1CSC1.[Cl][Hg][Cl]
inactive: dose: 5.0 mg/kg/injection, schedule: Q01DX001 (ip), vehicle: carboxymethylcellulose (CMC) 94 % of control | dose: 10.0 mg/kg/injection, schedule: Q01DX001 (ip), vehicle: carboxymethylcellulose (CMC) 100 % of control | dose: 20.0 mg/kg/injection, schedule: Q01DX001 (ip), vehicle: carboxymethylcellulose (CMC) 91 % of control

CC(=O)Nc1ccc(/C=C(\C#N)c2cccc3ccccc23)cc1
inactive: [7] 90 % of control | [8] 87 % of control | [9] 88 % of control

CCCCCCCCCCc1ccccc1
inactive: dose: 12.5 mg/kg/injection, schedule: Q04DX002 (ip), vehicle: saline with Tween-80 100 % of control | dose: 25.0 mg/kg/injection, schedule: Q04DX002 (ip), vehicle: saline with Tween-80 97 % of control | dose: 50.0 mg/kg/injection, schedule: Q04DX002 (ip), vehicle: saline with Tween-80 93 % of control | dose: 200.0 mg/kg/injection, schedule: Q04DX002 (ip), vehicle: saline with Tween-80 112 % of control

CCCC(C)(Cl)C(=O)Nc1cccc(OC(=O)NC)c1 (configuration not stated)
inactive: [14] 92 % of control | [15] 90 % of control | [16] 90 % of control

NNC(=O)Cc1ccc([N+](=O)[O-])cc1
inactive: [18] 94 % of control | [19] 97 % of control | [5] 103 % of control | [20] 94 % of control | [6] 105 % of control

COc1ccc(NCCOc2ccccc2Br)cc1
inactive: dose: 100.0 mg/kg/injection, schedule: Q01DX009 (ip), vehicle: other 96 % of control | dose: 200.0 mg/kg/injection, schedule: Q01DX009 (ip), vehicle: other 96 % of control | dose: 400.0 mg/kg/injection, schedule: Q01DX009 (ip), vehicle: other 104 % of control
